Assay [1] concerns Passive Cutaneous Anaphylaxis. The assay can be described thus: Passive Cutaneous Anaphylaxis (PCA) Assay, in vivo anti-allergic activity. Also noted: species or system rat. The note with it: for ED50 (dose reducing the size of the blued area by 50%) / ED50: estimated from dose response curves; for ED50: read-out: ED50 (dose reducing the size of the blued area by 50%). The protocol:
Passive Cutaneous Anaphylaxis (PCA) Assay
Representative compounds of the present invention were tested comparatively with cromoglycate to determine in vivo anti-allergic activity. The anti-allergic properties were ascertained in rats by the Passive Cutaneous Anaphylaxis test (PCA) essentially as described by Goose and Blair, Immunology, 16: 749-760 (1969).
Rat serum was diluted so that skin reactions with diameters between 10 and 15 mm in unsensitized rats were produced. The PCA test was performed in duplicate by injecting 0.1 ml of this antiserum dilution on each side of the shaved back of rats. Rats so treated were injected intravenously (i.v.) twenty-four hours later with 0.02 mg ovalbumin in 0.5 ml of 1% Evans Blue solution within five minutes after intravenous administration or 30 minutes after oral administration of the test compounds. Thirty minutes after the ovalbumin challenge the rats were killed by CO2 -asphyxiation, and the skin was reflected. The diameters, in millimeters, of the blued areas were measured and the mean diameter was determined. The circular area was calculated, and the mean area in square millimeters of the control group was considered as 100%. The results of the compound test groups were expressed as a percentage change from these control values. From dose response curves the dose reducing the size of the blued area by 50% (ED50) was estimated.

The conditions of assay [2]: cited from earlier work.
Setting [3] is: p.o., 30 minutes before ovalbumin challenge.
Where [4] appears, read: Rattus norvegicus, po, 30 minutes before ovalbumin challenge.
[5] abbreviates: Rattus norvegicus, 0.5 h, 10 mg/kg, p.o., oral administration 30 minutes before ovalbumin challenge, blued area vs control.
Setting [6] is: Rattus norvegicus, iv, ovalbumin challenge within five minutes.

Structures can show the parent of a compound that is named as a salt. Where two headings read alike, the source gives them in different places.

For `O=C(O)c1cc(=O)c2c(OCC(O)COc3cccc4oc(C(=O)O)cc(=O)c34)cccc2o1` [Cromoglycate], the “ED50 (dose reducing the size of the blued area by 50%)” value in assay [1] (setting [3]) is “Inactive”. Also, in assay [2] (given orally), the “antiallergic activity when given orally” value was “not active”. Besides, the “bronchodilator when given by inhalation as a solid” value in assay [2] (inhalation as a solid) is “effective”. What is called ED50 is the midpoint of the dose-response relation. For `CCOC(=O)C(=O)Nc1ccc(C=Cc2ccncn2)cc1` [Example 1, Ethyl 2-(4-pyrimidinyl)ethenylphenyl-4 oxamate], the 50% effective dose (ED50) in assay [1] (setting [4]) was 1.4 mg/kg. As a reminder, the inhibition in vivo is the drop in the measured response relative to a control, in per cent. Read a low inhibition in vivo as a weak effect. Molecule `O=C(O)C(=O)Nc1ccc(C=Cc2ccncn2)cc1` [Example 2, 2-(4-Pyrimidinyl)ethenylphenyl-4 oxamic acid ethanolamine salt] registered an inhibition in vivo at 3 mg/kg in assay [1] (Rattus norvegicus, 0.5 h, 3 mg/kg, i.v., ovalbumin challenge within five minutes after intravenous administration) of 63%.

For `CCOC(=O)C(=O)Nc1ccc(C=Cc2ccnc(NC(=O)C(=O)OCC)n2)cc1` [Example 3, Ethyl 2-(2-ethoxyoxalylaminopyrimidin-4-yl)-ethenylphenyl-4 oxamate], in assay [1] (setting [4]), the ED50 is 10 mg/kg. On the same count and under the same terms, the value for `CCOC(=O)C(=O)Nc1cccc(C=Cc2ccncn2)c1` [Example 4, Ethyl 2-(4-pyrimidinyl)ethenylphenyl-3 oxamate] was 2.8 mg/kg. `O=C(O)C(=O)Nc1cccc(C=Cc2ccncn2)c1` [Example 5, 2-(4-Pyrimidinyl)ethenylphenyl-3 oxamic acid ethanolamine salt]: the 50% effective dose (ED50) in assay [1] (setting [4]) is 12.3 mg/kg. Regarding `CCOC(=O)C(=O)Nc1ccccc1C=Cc1ccncn1` [Example 6, Ethyl 2-(4-pyrimidinyl)ethenylphenyl-2 oxamate], the inhibition in vivo at 10 mg/kg in assay [1] (setting [5]) was determined as 20%.

For the molecule `O=C(O)C(=O)Nc1ccccc1C=Cc1ccncn1` [Example 7, 2-(4-Pyrimidinyl)ethenylphenyl-2 oxamic acid ethanolamine salt], the ED50 in assay [1] (setting [4]) was 8 mg/kg. `CCOC(=O)C(=O)Nc1ccc(C=Cc2ccncn2)c(O)c1` [Example 8, Ethyl 2-(4-pyrimidinyl)ethenyl-2-hydroxyphenyl-4 oxamate]: the 50% effective dose (ED50) in assay [1] (setting [4]) is 4.5 mg/kg. `CCOC(=O)C(=O)Nc1cc(C=Cc2ccncn2)ccc1OCCN(C)C` [Example 11, Ethyl 2-(4-pyrimidinyl)ethenyl-4-N,N--dimethylaminoethoxyphenyl-3 oxamate] yielded an inhibition in vivo at 10 mg/kg in assay [1] (setting [5]) of 9%.

With `CCOC(=O)C(=O)Nc1ccc(C=Cc2ccncn2)c(NC(=O)C(=O)OCC)c1` [Example 12, Diethyl 2-(4-pyrimidinyl)ethenylphenyl-2,4-dioxamate], in assay [1] (setting [4]), the ED50 was 2 mg/kg. For `CCOC(=O)C(=O)Nc1ccc(C=Cc2cc(OCC)nc(OCC)n2)cc1` [Example 13, Ethyl 2-(2,6-diethoxypyrimidin-4-yl)ethenylphenyl-4 oxamate], in assay [1] (setting [4]), the ED50 was 30 mg/kg.

Take `CCOC(=O)C(=O)Nc1ccc(C=Cc2cc(N)nc(C)n2)cc1` [Example 14, Ethyl 2-(2-methyl-6-aminopyrimidin-4-yl)ethenyl phenyl-4 oxamate]: in assay [1] (setting [4]), the median effective dose (ED50) was 10 mg/kg. For `CCOC(=O)C(=O)Nc1ccc(C=Cc2cc(C)ncn2)cc1` [Example 15, Ethyl 2-(6-methylpyrimidin-4-yl)ethenylphenyl-4 oxamate], the ED50 in assay [1] (setting [4]) was 1.1 mg/kg.

With `CCOC(=O)C(=O)Nc1cccc(C=Cc2ccnc(NC(C)=O)n2)c1` [Example 16, Ethyl 2-(2-acetamidopyrimidin-4-yl)ethenylphenyl-3 oxamate], in assay [1] (setting [5]), the inhibition in vivo at 10 mg/kg was determined as 42%.

For `CC(=O)Nc1nccc(C=Cc2cccc(NC(=O)C(=O)O)c2)n1` [Example 17, 2-(2-Acetamidopyrimidin-4-yl)ethenylphenyl-3 oxamic acid tromethane salt], in assay [1] (setting [5]), the inhibition in vivo at 10 mg/kg was 37%. On to `CCOC(=O)C(=O)Nc1ccc(C=Cc2cccnn2)cc1` [Example 18, Ethyl 2-(3-pyridazinyl)ethenylphenyl-4 oxamate], for which the ED50 in assay [1] (setting [4]) is 1 mg/kg.

As to `O=C(O)C(=O)Nc1ccc(C=Cc2cccnn2)cc1` [Example 19, 2-(3-Pyridazinyl)ethenylphenyl-4 oxamic acid ethanolamine salt], in assay [1] (setting [5]), the inhibition in vivo at 10 mg/kg is 0%. Take `CCOC(=O)C(=O)Nc1ccc(C=Cc2cnccn2)cc1` [Example 20, Ethyl 2-(2-pyrazinyl)ethenylphenyl-4 oxamate]: the median effective dose (ED50) in assay [1] (setting [4]) is 4.6 mg/kg.

On to `O=C(O)C(=O)Nc1ccc(C=Cc2cnccn2)cc1` [Example 21, 2-(2-Pyrazinyl)ethenylphenyl-4 oxamic acid sodium salt], for which the 50% effective dose (ED50) in assay [1] (setting [4]) was 10 mg/kg. With `CCOC(=O)C(=O)Nc1cccc(C=Cc2cnccn2)c1` [Example 22, Ethyl 2-(2-pyrazinyl)ethenylphenyl-3 oxamate], the ED50 in assay [1] (setting [4]) was 4 mg/kg.

As to `O=C(O)C(=O)Nc1cccc(C=Cc2cnccn2)c1` [Example 23, 2-(2-Pyrazinyl)ethenylphenyl-3 oxamic acid ethanolamine salt], in assay [1] (setting [4]), the ED50 was less than 1 mg/kg. Consider `CCOC(=O)C(=O)Nc1ccc(C=Cc2cc(NC(=O)C(=O)OCC)nc(C)n2)cc1` [Example 24, Ethyl 2-(2-methyl-6-ethoxyoxalylaminopyrimidin-4-yl)-ethenylphenyl-4 oxamate], for which the ED50 in assay [1] (setting [4]) is 0.3 mg/kg. `Cc1nc(C=Cc2ccc(NC(=O)C(=O)O)cc2)cc(NC(=O)C(=O)O)n1` [Example 25, 2-(2-Methyl-6-carboxycarbonylaminopyrimidin-4-yl)-ethenylphenyl-4 oxamic acid hydrate diethanolamine salt]: in assay [1] (setting [4]), the ED50 is 4 mg/kg. `CCOC(=O)C(=O)Nc1cccc(C=Cc2cc(NC(=O)C(=O)OCC)nc(C)n2)c1` [Example 26, Ethyl 2-(2-methyl-6-ethoxyoxalyl-aminopyrimidin-4-yl)-ethenylphenyl-3 oxamate hemihydrate] gave an inhibition in vivo at 10 mg/kg in assay [1] (setting [5]) of 64%. The median effective dose (ED50) in assay [1] (setting [4]) was less than 10 mg/kg. For `Cc1nc(C=Cc2cccc(NC(=O)C(=O)O)c2)cc(NC(=O)C(=O)O)n1` [Example 27, 2-(2-Methyl-6-carboxycarbonyl-aminopyrimidin-4-yl)-ethenylphenyl-3 oxamic acid di-tromethane salt], the inhibition in vivo at 10 mg/kg in assay [1] (setting [5]) stood at 0%. Moreover, the ED50 in assay [1] (setting [6]) was 0.03 mg/kg. As to `CCOC(=O)C(=O)Nc1cccc(C=Cc2ccnc(NC(=O)C(=O)OCC)n2)c1` [Example 28, Ethyl 2-(2-ethoxyoxalylamino-pyrimidin-4-yl)ethenyl-phenyl-3 oxamate], at 10 mg/kg the inhibition in vivo in assay [1] (setting [5]) was 5%. With `O=C(O)C(=O)Nc1cccc(C=Cc2ccnc(NC(=O)C(=O)O)n2)c1` [Example 29, 2-(2-Carboxycarbonylamino-pyrimidin-4-yl)ethenyl-phenyl-3 oxamic acid tetra-sodium salt di-hydrate], the “% Inhibition (repeat)” value in assay [1] (10 mg/kg, p.o., repeat test) is given as 2%. Besides, the inhibition in vivo at 10 mg/kg in assay [1] (setting [5]) amounted to 67%.

Molecule `CCOC(=O)C(=O)Nc1ccc(C=Cc2nccnc2CC)cc1` [Example 30, Ethyl 2-(3-ethylpyrazin-2-yl)ethenylphenyl-4 oxamate] gave an inhibition in vivo at 10 mg/kg in assay [1] (setting [5]) of 6%. In assay [1] (setting [5]), `CCc1nccnc1C=Cc1ccc(NC(=O)C(=O)O)cc1` [Example 31, 2-(3-Ethylpyrazin-2-yl)ethenyl-phenyl-4 oxamic acid ethanolamine salt] yielded an inhibition in vivo at 10 mg/kg of 15%. `CCOCCOC(=O)C(=O)Nc1ccc(C=Cc2cnccn2)cc1` [Example 32, Ethoxyethyl 2-(2-pyrazinyl)ethenylphenyl-4 oxamate]: at 10 mg/kg the inhibition in vivo in assay [1] (setting [5]) was 46%.

The molecule `CCOCCOC(=O)C(=O)Nc1ccc(C=Cc2cc(N)nc(C)n2)cc1` [Example 33, Ethoxyethyl 2-(2-methyl-6-aminopyrimidin-4-yl)-ethenylphenyl-4 oxamate hemihydrate] registered an inhibition in vivo at 10 mg/kg in assay [1] (setting [5]) of 52%. As to `O=C(O)C(=O)Nc1ccc(C=Cc2cnccn2)c(NC(=O)C(=O)O)c1` [Example 35, 2-(2-Pyrazinyl)ethenylphenyl-2,4 dioxamic acid di-ethanolamine salt], the ED50 in assay [1] (setting [6]) was 0.53 mg/kg. Regarding `O=C(O)C(=O)Nc1ccc(C=Cc2ccncn2)c(NC(=O)C(=O)O)c1` [Example 36, 2-(4-Pyrimidinyl)ethenylphenyl-2,4 dioxamic acid di-ethanolamine salt], the ED50 in assay [1] (setting [6]) is 0.05 mg/kg. By % Inhibition is commonly meant the drop in the measured response relative to a control, in per cent. Higher therefore signals a response far below the control. For `CCOC(=O)C(=O)Nc1cc(C=Cc2ccc(Cl)nn2)cc(NC(=O)C(=O)OCC)c1Cl` [Example 37, Diethyl 2-(6-chloropyridazin-3-yl)ethenyl (4-chlorophenyl)-3,5dioxamate], the “% Inhibition” value in assay [1] (10 mg/kg, p.o., oral administration 30 minutes before ovalbumin challenge, blued area vs control) stood at 54%. With “Ethyl 2-(4-pyrimidinyl)ethenyl-6-chlorophenyl-3 oxamate [Example 9]”, the “ED50 (dose reducing the size of the blued area by 50%)” value in assay [1] (setting [3]) is 2 mg/kg, p.o.

The values above are taken from patent publication US4681884A, “Diazine-ethenylphenyl oxamic acids and esters and salts thereof” (Boehringer Ingelheim Pharmaceuticals, Inc., priority 1985, dated 1987).
